{
  "source": "patent US9040248B2",
  "about": "“Kits for detecting and monitoring endocrine disrupting chemicals (EDCs)” (The United States of America, as represented by the …, priority 2012, dated 2015)",
  "key": {"[1]": {"target": "T1, GFP-GR (GFP-tagged glucocorticoid receptor) (Rattus norvegicus, UniProt P06536, C656G/D98G)", "T1 construct": "expressed in transfected cells; host or cells: 3617 cells (derivative of the 3134 mouse mammary adenocarcinoma line), tetracycline-repressible promoter", "assay": "GFP-GR cytoplasm-to-nucleus translocation assay in 3617 cells", "type": "cell-based", "settings": "30 min treatment; water samples 100×", "method": "(§1) For biological testing, samples prepared as above were reconstituted in DMSO and diluted in growth media to a final 1,000× concentration from the original water volume while maintaining DMSO at <0.2%. Samples were added to cells for 30 minutes at 100× concentration or as indicated in the text.\n(§2) Prior to imaging, cells were grown overnight on 22-mm^2 coverslips in DMEM medium containing 10% charcoal stripped serum (Hyclone, Logan, Utah) without tetracycline (to allow the expression of the GFP-GR or GFP-AR, respectively) at a density of 2×10^5 per 6-well plate. For the automated experiments conducted in 96 or 384 well plates, cell density was 10,000 or 2,500 cells per well, respectively. Cells were treated with vehicle control, hormones (100 nM) or water samples for 30 min at 37° C. at a final concentration of 100× for water samples (unless otherwise specified). Additional negative controls contained samples that tested the activity of the POCIS membranes themselves.\nUpon treatment, cells were fixed with 4% paraformaldehyde in PBS for 15 minutes and washed three times with PBS. Cells on the 22-mm^2 coverslips were mounted in […]® mounting media with DAPI (Vector Laboratories, Inc.) and examined on a Leica DMRA microscope with Leica 100×1.3-N.A. oil immersion objective. Images were acquired in green (GFP-GR and GFP-AR) and UV (DAPI) channel with SenSys (Photometrics) camera with KAF1400 chip configured to collect 0.067-μm-diameter pixels. […]\n(§3) A Perkin Elmer Opera Image Screening System was used for fully automated collection of fluorescence images of cells. This system employed a 40× water immersion objective lens, laser illuminated Nipkow disk, and cooled CCD cameras to digitally capture high resolution confocal fluorescence micrographs (300 nm pixel size with 2×2 camera pixel binning). […] The algorithm also measured the mean GFP-GR or GFP-AR intensity in both compartments, and translocation was calculated as a ratio of these intensities. […]"}, "[2]": {"target": "T2, GFP-AR (GFP-tagged androgen receptor, eGFP-hAR) (Homo sapiens, UniProt P10275)", "T2 construct": "expressed in transfected cells; host or cells: 3108 cells (derivative of the 3134 mouse mammary adenocarcinoma line), tetracycline-repressible promoter", "assay": "GFP-AR cytoplasm-to-nucleus translocation assay in 3108 cells", "type": "cell-based", "settings": "30 min treatment, hormones 100 nM or known concentrations, water samples 100×", "method": "as §1\nas §2, with “Additional negative controls contained samples that tested the activity of the POCIS membranes themselves.” left out\nas §3"}},
  "note": "Entries after “also recorded” stand apart in the source; their conditions may differ.",
  "data": [
    {"smiles": "C[C@@]12CCC[C@H]1[C@@H]1CC(=O)C3=CC(=O)CC[C@]3(C)[C@H]1CC2", "note": "(single isomer, unassigned) [Androst-4-en-3,6-dione]", "values": [
      {"measurement": "GFP-GR nuclear translocation (in words)", "setting": "[1]", "result": "did not induce GFP-GR translocation"},
      {"measurement": "GFP-AR nuclear translocation (in words)", "setting": "[2]", "result": "induced GFP-tagged androgen receptor (GFP-AR) translocation"},
      {"measurement": "GFP-AR nuclear translocation (in words)", "setting": "[2]; listed as androst-4-en-3,6-dione", "result": "translocated to the nucleus in concentration-dependent manner; also recorded: induces concentration-dependent translocation"}
    ]},
    {"smiles": "CCNc1nc(Cl)nc(NC(C)C)n1", "note": "[atrazine]", "values": [
      {"measurement": "GFP-GR nuclear translocation (in words)", "setting": "[1]", "result": "did not induce GFP-GR translocation"}
    ]},
    {"smiles": "C[C@]12C[C@H](O)[C@H]3[C@@H](CCC4=CC(=O)CC[C@@]43C)[C@@H]1CC[C@@H]2C(=O)CO", "note": "[corticosterone]", "values": [
      {"measurement": "GFP-GR nuclear translocation (in words)", "setting": "[1]", "result": "translocates to the nucleus in a concentration-dependent manner"}
    ]}
  ]
}
